# Test results as given in patent publication US20250019357A1, “[…] MORPHIC FORMS AND MIXTURES FOR THE TREATMENT OF MENTAL DISORDERS OR MENTAL ENHANCEMENT” (TACTOGEN INC, priority 2021, published 2025).
# “Also recorded” adds a separate entry of the source.
# Columns and labels:
# 5-HT2A receptor = 5-HT2A receptor (Homo sapiens (Human), UniProt P28223); assay: 5-HT2A agonist activity (Example 6); assay type: cell-based
# SERT [1] = biological target: T1, SERT (Rattus norvegicus (Rat), UniProt P31652); assay: In vitro rat synaptosome serotonin release (efflux) assay (Examples 9, 58); assay type: biochemical; details: rat synaptosomes
# Source text: (§1) FIG. 7B is a graph showing results from an in vitro rat synaptosome serotonin release assay. […] Details and procedural information for this assay are described in Example 9. The x-axis is the log [dose] concentration measured in molar and the y-axis is the [^3H]-labeled 5-HT release measured in percent.
# as §1, with “177” for “7B”, “58.” for “9.”, “x-axis” for “x-axis is”
# NET = assay: In vitro rat synaptosome norepinephrine release assay (Examples 9, 58); assay type: biochemical; details: rat synaptosomes
# Source text: as §1, with “8C” for “7B”, “from” for “from an”, “synaptosome dopamine and norepinephrine release assays. […] Previously presented” for “synaptosome”, “results are included for comparison.” for “release assay.”
# (§2) FIG. 178 is a graph showing results from in vitro rat synaptosome dopamine and norepinephrine release assays. […] Previously presented serotonin results are included for comparison. […] Details and procedural information for this assay are described in Example 58. The x-axis the log [dose] concentration measured in Molar units and the y-axis is the [^3H]-labeled 5-HT release measured in percent of maximum produced by the comparison releaser.
# [2] = biological target: hTAAR1 (human trace amine-associated receptor) (Homo sapiens (Human), UniProt Q96RJ0); assay: Interaction with hTAAR1; details: concentrations up to 60 μM
# Swiss CD1 mice = assay: Marble burying test; assay type: in vivo; details: enantiomers given simultaneously
# [3] = Marble burying assay (Example 5); assay type: in vivo; details: individual enantiomers vs the racemic mixture
# Source text: FIG. 2 is a chart showing results from the marble burying assay to measure decreased anxiety and neuroticism resulting from treatment with S-5-MAPB, R/S-5-MAPB, and R-5-MAPB. […] The y-axis gives the compound and dose. Error bars indicate 95% confidence intervals. Details and procedural information for this assay are described in Example 5.
# [4] = biological target: human 5-HT transporter (hSERT) (Homo sapiens (Human), UniProt P31645); assay: Human serotonin transporter  assay ([3H]imipramine radioligand, CHO cells); assay type: binding; details: 2 nM [3H]imipramine, CHO cells; read-out: SERT IC50
# Protocol: EXAMPLE 8: Human Serotonin Transporter (SERT, SLC6A4) Functional Antagonist Uptake Assay
# Benzofuran derivatives were evaluated for inhibiting the human 5-HT transporter (hSERT) as expressed in CHO cells using an antagonist radioligand assay (Tatsumi, M. et al. (1999), Eur. J. Pharmacol., 368: 277-283). […] Test compounds were assayed in three trials at […], and 0.94868 μM.
# EXAMPLE 57: Human Serotonin Transporter (SERT, SLC6A4) Functional Antagonist Uptake Assay
# DAT = DAT (Rattus norvegicus (Rat), UniProt P23977); assay: In vitro rat synaptosome dopamine release assay (Examples 9, 58); assay type: biochemical; details: rat synaptosomes
# Source text: as §1, with “8C” for “7B”, “from” for “from an”, “synaptosome dopamine and norepinephrine release assays. […] Previously presented” for “synaptosome”, “results are included for comparison.” for “release assay.”
# as §2
# [5] = test system: norepinephrine transporter (NET); assay: Rat synaptosome NET release assay ([3H]MPP+); details: rat synaptosomes
# SERT [6] = biological target: T1, SERT; assay: In vitro rat synaptosome serotonin uptake inhibition assay (Examples 9, 58); assay type: biochemical; details: rat synaptosomes
# Source text: as §1, with “FIG. 7A” for “FIG. 7B”, “serotonin uptake inhibition” for “serotonin release”, “5-HT reuptake” for “5-HT release”
# FIG. 176 is a graph showing results from an in vitro rat synaptosome serotonin uptake inhibition assay. […] Details and procedural information for this assay are described in Example 58. The x-axis the log [dose] concentration is measured in Molar units and the y-axis is the [^3H]-labeled 5-HT reuptake measured in percent of maximum produced by the comparison releaser.
# [7] = biological target: dopamine transporter (DAT) (Rattus norvegicus (Rat), UniProt P23977); assay: Rat synaptosome DAT release assay ([3H]MPP+); details: read-out: dopamine Emax (maximum dopamine increase relative to reference drug)
# MDCKII cell line = assay: In vitro absorption assay, MDCKII permeability; assay type: in vitro ADME; details: pH 7.4/7.4, 10 μM
# Protocol: (§3) The permeability of 10 μM RS-5-MAPB in Caco-2, MDCKII, and MDR1-MDCKII cell line assays was assessed (Table 6). Both the AB and BA directions with and without the addition of a Pgp-specific inhibitor (verapamil), a MRP1 inhibitor (MK571), and an ATP-binding cassette subfamily G member 2 (ABCG2/BCRP) inhibitor (KG143) were measured. Trials were repeated twice, and values averaged.
# human SERT = human SERT (Homo sapiens (Human), UniProt P31645); assay: hSERT release assay in CHO cells ([3H]serotonin); details: read-out: EC50 SERT (Mean ± SEM), CHO cells expressing hSERT
# human DAT = human DAT (Homo sapiens (Human), UniProt Q01959); assay: hDAT release assay in CHO cells ([3H]dopamine); details: read-out: EC50 DAT (Mean ± SEM), CHO cells expressing hDAT
# Caco-2 cell line = assay: In vitro absorption assay, Caco-2 permeability; assay type: in vitro ADME
# Protocol: as §3
# [8] = Human self-reported effects of non-racemic 5-MAPB (Good, Bad, Open ratings); assay type: in vivo; details: one healthy human, 54 mg total 5-MAPB HCl oral in two halves 1 hour apart; session maximum averaged (N=2, 13% S N=1)
# Protocol: The effects of non-racemic 5-MAPB HCl were tested by a healthy human individual at four different ratios of enantiomers plus the racemate as a control: • 54 mg S and 0 mg R (100% S) • 47 mg S and 7 mg R (about 87% S) • 36 mg S and 18 mg R (about 67% S) • 27 mg S and 27 mg R (about 50% S) • 7 mg S and 47 mg R (about 13% S)
# Two trials were carried out at each ratio, except for 13% S where only one was conducted. Trials were at least 72 h apart.
# 5-MAPB HCl was dissolved in 1.5 ml distilled water and consumed in two halves, separated by 1 hour. Starting at 3 hours after administration, tablets of 250 mg ascorbic acid and capsules of 300 mg alpha lipoic acid were taken ad libitum (approximately every hour for a total of 4 administrations).
# Measurements were made approximately every 2 hours until post 6 hours and the maximum ratings per session were analyzed. Additionally, an index of good drug effects versus emotional openness, calculated as (Open−Good)/(200, the theoretical maximum of Open+ Good), was constructed at each time point and the maximum analyzed. In healthy volunteers, Good Ratings can be considered a predictor of abuse liability. Accordingly, this index can be used as an indicator of the balance of a therapeutic effect (emotional openness) vs abuse liability.
# Historic data of two trials 50 mg RS-5-MAPB Cl from the same individual were also included in the analysis for comparison.
# Table 24 below indicates maximums for individual measures and for the open vs good index, averaged from all sessions (N=2, except for 13% S-5-MAPB where N=1). Qualitatively, all conditions produced subtle emotional effects, including decreases in negative affect and increases in stability of mood, without sensory distortion.
# MDR1-MDCKII cell line = assay: In vitro absorption assay, MDR1-MDCKII permeability; assay type: in vitro ADME
# Protocol: as §3
# [9] = Caco-2, pH 7.4/7.4 + KO143, 10 μM
# [10] = Caco-2, pH 7.4/7.4 + verapamil, 10 μM
compound,measurement,setting,value
"CCC(Cc1ccc2ccoc2c1)NC (racemic) [Pattern 6-MBPB, 6-MBPB]",5-HT2A agonist activity,5-HT2A receptor,poor agonist of 5-HT2A
same,[3H]-labeled 5-HT release,SERT [1],5-HT releaser
same,norepinephrine release,NET,only partial releaser of norepinephrine
same,interactions with hTAAR1,[2],lacks interactions with hTAAR1
"CNC(C)Cc1ccc2occc2c1 (centres unmarked) [Pattern 5-MAPB, 5-MAPB]",marble burying: interaction between enantiomers,Swiss CD1 mice,strong non-additive interaction
same,"anxiolytic effect, percent of marbles left unburied versus placebo",[3],non-additive effects of the two enantiomers
"CC[C@H](Cc1ccc2occc2c1)NC [Pattern R-5-MBPB, R-5-MBPB]",IC50,[4],< 950 nM
same,dopamine release / dopamine uptake,DAT,reuptake inhibitors of dopamine; also recorded: dopamine uptake inhibitors
same,norepinephrine Emax,[5],58%
same,[3H]-labeled 5-HT release,SERT [1],rapidly increases extracellular serotonin by stimulating release
same,norepinephrine release,NET,partial releasers of norepinephrine; also recorded: rapidly increases extracellular norepinephrine by stimulating release
same,[3H]-labeled 5-HT reuptake (serotonin uptake inhibition),SERT [6],rapidly increases extracellular serotonin by inhibiting reuptake
same,Emax,[7],~25%
"CC[C@@H](Cc1ccc2occc2c1)NC [Pattern S-5-MBPB, S-5-MBPB]",IC50,[4],< 950 nM
same,[3H]-labeled 5-HT release,SERT [1],rapidly increases extracellular serotonin by stimulating release
same,norepinephrine release,NET,rapidly increases extracellular norepinephrine by stimulating release
same,[3H]-labeled 5-HT reuptake (serotonin uptake inhibition),SERT [6],rapidly increases extracellular serotonin by inhibiting reuptake
CNC(C)Cc1ccc2occc2c1 (centres unmarked) [RS-5-MAPB],Permeability (Papp) A-B,MDCKII cell line,82.1 10^−6 cm/s
same,Permeability (Papp) B-A,MDCKII cell line,19.8 10^−6 cm/s
same,EC50,human SERT,90 ± 16 nM
same,EC50,human DAT,459 ± 48 nM
same,absorption (conclusion of the permeability assays),"Caco-2 cell line; Caco-2, MDCKII and MDR1-MDCKII assays taken together",well absorbed
same,Permeability (Papp) A-B,Caco-2 cell line; [9],75.3 10^−6 cm/s
same,Permeability (Papp) B-A,Caco-2 cell line; [9],14 10^−6 cm/s
same,Permeability (Papp) A-B,Caco-2 cell line; [10],37.6 10^−6 cm/s
same,Permeability (Papp) B-A,Caco-2 cell line; [10],23 10^−6 cm/s
same,Permeability (Papp) A-B,"Caco-2 cell line; Caco-2, pH 7.4/7.4, 10 μM",81 10^−6 cm/s
same,Permeability (Papp) B-A,"Caco-2 cell line; Caco-2, pH 7.4/7.4, 10 μM",29.1 10^−6 cm/s
same,"Bad (bad drug effects), maximum 0-100 rating",[8],10%
same,"Good (good drug effects), maximum 0-100 rating",[8],50%
same,"Open (emotional openness), maximum 0-100 rating",[8],45%
same,Permeability (Papp) A-B,"MDR1-MDCKII cell line; pH 7.4/7.4 + verapamil, 10 μM",42.8 10^−6 cm/s
same,Permeability (Papp) B-A,"MDR1-MDCKII cell line; pH 7.4/7.4 + verapamil, 10 μM",30.4 10^−6 cm/s
same,Permeability (Papp) A-B,"MDR1-MDCKII cell line; pH 7.4/7.4, 10 μM",68.7 10^−6 cm/s
same,Permeability (Papp) B-A,"MDR1-MDCKII cell line; pH 7.4/7.4, 10 μM",20.5 10^−6 cm/s
